This note sets out measurements from patent US12503436B2, “Compounds and compositions for treating conditions associated with STING activity” (NOVARTIS PHARMA AG, priority 2021, dated 2025).

Usually EC50 stands for the concentration at which the effect is half-maximal.

Sequence of STING (Q86WV6 whole entry R71H/G230A/H232R/R293Q): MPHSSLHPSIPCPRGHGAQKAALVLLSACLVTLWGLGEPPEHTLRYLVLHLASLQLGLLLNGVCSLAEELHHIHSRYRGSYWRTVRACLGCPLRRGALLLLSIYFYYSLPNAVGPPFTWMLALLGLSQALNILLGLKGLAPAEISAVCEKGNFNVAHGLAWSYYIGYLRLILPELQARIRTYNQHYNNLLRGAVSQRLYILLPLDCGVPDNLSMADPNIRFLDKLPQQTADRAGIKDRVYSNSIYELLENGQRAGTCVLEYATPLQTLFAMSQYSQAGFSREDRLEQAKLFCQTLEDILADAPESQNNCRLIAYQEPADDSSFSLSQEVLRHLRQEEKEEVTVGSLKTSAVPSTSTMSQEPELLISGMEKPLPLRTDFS

The target of this test is STING (Homo sapiens, UniProt Q86WV6, G230A/H232R/R293Q/R71H). Nature of the test: STING reporter assay in THP1-Dual KO-IFNAR2 cells (2′3′cGAMP stimulation, luciferase reporter). In kind it is cell-based. The note with it: 15 μM 2′3′cGAMP stimulation, 24 h, read-out: Pharmaron, THP1_IFNAR2 STING 24 h Luci Normalized: GeoMean EC50. A digest of the protocol:
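EC50 from secreted luciferase (QUANTI-Luc Plus luminescence of supernatant) after 24 h at 37 °C, 5% CO2. Cells: THP1-Dual KO-IFNAR2, treated with compound (0.0017-100 μM final) plus lipofected 2′3′cGAMP at 15 μM final.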
As for `CO[C@H]1C[C@H](C(=O)Nc2c[nH]c3ccc(O[C@H]4C[C@H](c5ccc(C(F)(F)F)cc5)C4)cc23)C1` [Compound 242, trans-3-methoxy-N-(5-(trans-3-(4-(trifluoromethyl)phenyl)cyclobutoxy)-1H-indol-3-yl)cyclobutane-1-carboxamide], the EC50 lay in the range of 40 to 200 nM. With `CC(=O)Nc1c[nH]c2ccc(CCOc3ccc(C(F)(F)F)cc3)nc12` [Compound 255, N-(5-(2-(4-(trifluoromethyl)phenoxy)ethyl)-1H-pyrrolo[3,2-b]pyridin-3-yl)acetamide] the figure was 1000 to 5000 nM; with `CC(=O)Nc1c[nH]c2ccc(CCOc3ccc4ncccc4c3)cc12` [Compound 526, N-(5-(2-(quinolin-6-yloxy)ethyl)-1H-indol-3-yl)acetamide], 5000 to 100000 nM; with `CC(=O)Nc1c[nH]c2ccc(OCCC3CCCN(CC(F)(F)F)C3)cc12` (single isomer, unassigned) [Compound 280], 1000 to 5000 nM. For `CC(=O)Nc1c[nH]c2ccc(CCOc3ccc(-c4csc(C)n4)cc3)cc12` [Compound 475, N-(5-{2-[4-(2-methyl-1,3-thiazol-4-yl)phenoxy]ethyl} -1H-indol-3-yl)acetamide], the EC50 was in the range of 1000 to 5000 nM. To `CC1(C(=O)Nc2c[nH]c3ccc(CCOc4ccc(C(F)(F)F)cc4)cc23)CCC1` [Compound 309, 1-methyl-N-(5-(2-(4-(trifluoromethyl)phenoxy)ethyl)-1H-indol-3-yl)cyclobutane-1-carboxamide] belongs 40 to 200 nM. To `CC(=O)Nc1c[nH]c2ccc(CCOc3cncc(C(F)F)c3)cc12` [Compound 439, N-[5-(2-{[5-(difluoromethyl)pyridin-3-yl]oxy}ethyl)-1H-indol-3-yl]acetamide] belongs 5000 to 100000 nM; to `O=C(Nc1c[nH]c2ccc(OCCc3ccc(C(F)(F)F)cc3)cc12)[C@H]1C[C@@H](O)C1` [Compound 190, (1S,3S)-3-hydroxy-N-(5-(4-(trifluoromethyl)phenethoxy)-1H-indol-3-yl)cyclobutanecarboxamide], 200 to 1000 nM. With `CC(=O)Nc1c[nH]c2ccc(CCOc3ccc(C)cc3)cc12` [Compound 228, N-(5-(2-(p-tolyloxy)ethyl)-1H-indol-3-yl)acetamide] the figure was 200 to 1000 nM.

For the molecule `CC(=O)Nc1c[nH]c2ccc(CCOc3ccccc3OCC(F)(F)F)cc12` [Compound 547, N-(5-(2-(2-(2,2,2-trifluoroethoxy)phenoxy)ethyl)-1H-indol-3-yl)acetamide], the EC50 fell in the range of 200 to 1000 nM.

As to `CC(=O)Nc1c[nH]c2ccc(CCOc3ccc(C(F)(F)F)nc3)cc12` [Compound 232, N-(5-(2-((6-(trifluoromethyl)pyridin-3-yl)oxy)ethyl)-1H-indol-3-yl)acetamide], the half-maximal effective concentration (EC50) is 1000 to 5000 nM. With “3-chloro-N-(5-(2-((3aR,5r,6aS)-2-(2,2,2-trifluoroethyl)octahydrocyclopenta[c]pyrrol-5-yl)ethoxy)-1H-indol-3-yl)cyclobutane-1-carboxamide [Compound 342]” the figure was 200 to 1000 nM. With `CC(=O)Nc1c[nH]c2ccc(CCC(C)(C)C3CCN(CC(F)(F)F)CC3)cc12` [Compound 275, N-(5-(3-methyl-3-(1-(2,2,2-trifluoroethyl)piperidin-4-yl)butyl)-1H-indol-3-yl)acetamide], the half-maximal effective concentration (EC50) is 1000 to 5000 nM. Consider `CC(=O)Nc1c[nH]c2ccc(CCOc3cccnc3C(F)(F)F)cc12` [Compound 541, N-(5-(2-((2-(trifluoromethyl)pyridin-3-yl)oxy)ethyl)-1H-indol-3-yl)acetamide], for which the EC50 fell in the range of 5000 to 100000 nM. To `N#C[C@@H]1C[C@@H]1C(=O)Nc1c[nH]c2ccc(CCOc3ccc(C(F)(F)F)cc3)cc12` [Compound 582, (1S,2R)-2-cyano-N-(5-(2-(4-(trifluoromethyl)phenoxy)ethyl)-1H-indol-3-yl)cyclopropane-1-carboxamide] belongs 40 to 200 nM; to `O=C(Nc1c[nH]c2ccc(C(O)CCc3ccc(C(F)(F)F)cc3)cc12)C1CC1` (stereo not drawn) [Compound 209, N-(5-(1-hydroxy-3-(4-(trifluoromethyl)phenyl)propyl)-1H-indol-3-yl)cyclopropanecarboxamide], 200 to 1000 nM.

Consider `CC(=O)Nc1c[nH]c2ccc(CCOc3ccc4c(c3)CCCC4)cc12` [Compound 490, N-(5-[2-(5,6,7,8-tetrahydronaphthalen-2-yloxy)ethyl]-1H-indol-3-yl}acetamide], for which the EC50 was in the range of 40 to 200 nM. With `O=C(Nc1c[nH]c2ccc(OCCc3ccc(C(F)(F)F)cc3)cc12)C1(C(F)(F)F)CC1` [Compound 185, 1-(trifluoromethyl)-N-(5-(4-(trifluoromethyl)phenethoxy)-1H-indol-3-yl)cyclopropane-1-carboxamide] the figure was 200 to 1000 nM; with `CC(=O)Nc1c[nH]c2ncc(COCc3ccc(C(F)(F)F)cc3)cc12` [Compound 271, N-(5-(((4-(trifluoromethyl)benzyl)oxy)methyl)-1H-pyrrolo[2,3-b]pyridin-3-yl)acetamide], 1000 to 5000 nM. With `CC(=O)Nc1c[nH]c2ccc(CCOc3cccc(C(C)N(C)C)c3)cc12` (stereo not drawn) [Compound 536, N-(5-(2-(3-(1-(dimethylamino)ethyl)phenoxy)ethyl)-1H-indol-3-yl)acetamide] the figure was 5000 to 100000 nM. With `O=C(Nc1c[nH]c2ccc(OCc3ccc(C(F)(F)F)cc3)cc12)[C@H]1C[C@@H](O)C1` [Compound 324, cis-3-hydroxy-N-(5-((4-(trifluoromethyl)benzyl)oxy)-1H-indol-3-yl)cyclobutane-1-carboxamide] the figure was 200 to 1000 nM; with `O=C(Nc1c[nH]c2ccc(OCC[C@@H]3C[C@@H]4CN(CC(F)(F)F)C[C@@H]4C3)cc12)C1CC1(F)F` (stereo partly drawn) [Compound 307, 2,2-difluoro-N-(5-(2-((3aR,5r,6aS)-2-(2,2,2-trifluoroethyl)octahydrocyclopenta[c]pyrrol-5-yl)ethoxy)-1H-indol-3-yl)cyclopropane-1-carboxamide], 200 to 1000 nM. For the molecule `CC(=O)Nc1c[nH]c2cc(F)c(CCOc3ccc(C(F)(F)F)cc3)c(F)c12` [Compound 375, N-(4,6-difluoro-5-(2-(4-(trifluoromethyl)phenoxy)ethyl)-1H-indol-3-yl)acetamide], the EC50 lay in the range of 1000 to 5000 nM.

Consider `CC1(C(=O)Nc2c[nH]c3ccc(O[C@H]4C[C@H](c5ccc(C(F)(F)F)cc5)C4)cc23)CCOCC1` [Compound 488, 4-methyl-N-{5-[(1R,3R)-3-[4-(trifluoromethyl)phenyl]cyclobutoxy]-1H-indol-3-yl}oxane-4-carboxamide], for which the EC50 lay within 40 to 200 nM.

For the molecule `CC(=O)Nc1c[nH]c2ccc(O[C@@H]3C[C@H](c4ccc(C(F)(F)F)cc4)C3(C)C)cc12` (relative stereo) [Compound 432, N-(5-(cis-2,2-dimethyl-3-(4-(trifluoromethyl)phenyl)cyclobutoxy)-1H-indol-3-yl)acetamide], the EC50 fell in the range of 1000 to 5000 nM. With `C[C@]1(C(=O)Nc2c[nH]c3ccc(OCc4ccc(C(F)(F)F)cc4)cc23)C[C@H](O)C1` [Compound 415, trans-3-hydroxy-1-methyl-N-(5-((4-(trifluoromethyl)benzyl)oxy)-1H-indol-3-yl)cyclobutane-1-carboxamide] the figure was 1000 to 5000 nM; with “2,2-dimethyl-N-(5-(2-((3aR,5r,6aS)-2-(2,2,2-trifluoroethyl)octahydrocyclopenta[c]pyrrol-5-yl)ethoxy)-1H-indol-3-yl)cyclopropane-1-carboxamide [Compound 368]”, 200 to 1000 nM. In the case of `CC(=O)Nc1c[nH]c2ccc(OCCn3cc(C(F)(F)F)cn3)cc12` [Compound 197, N-(5-(2-(4-(trifluoromethyl)-1H-pyrazol-1-yl)ethoxy)-1H-indol-3-yl)acetamide], the EC50 was 5000 to 100000 nM. To `CCC(=O)Nc1c[nH]c2ccc(OCCc3ccc(C(F)(F)F)cc3)cc12` [Compound 146, N-(5-(4-(trifluoromethyl)phenethoxy)-1H-indol-3-yl)propionamide] belongs 40 to 200 nM; to `CC(=O)Nc1c[nH]c2ccc(C#Cc3ccc(C(F)(F)F)cc3)cc12` [Compound 495, N-(5-((4-(trifluoromethyl)phenyl)ethynyl)-1H-indol-3-yl)acetamide], 1000 to 5000 nM; to “3-(hydroxymethyl)-N-(5-(2-((3aR,5r,6aS)-2-(2,2,2-trifluoroethyl)octahydrocyclopenta[c]pyrrol-5-yl)ethoxy)-1H-indol-3-yl)cyclobutane-1-carboxamide [Compound 343]”, 200 to 1000 nM. Consider `O=C(Nc1c[nH]c2ccc(CCOc3ccc(C(F)(F)F)cc3)cc12)C1CCC1` [Compound 145, N-(5-(2-(4-(trifluoromethyl)phenoxy)ethyl)-1H-indol-3-yl)cyclobutanecarboxamide], for which the EC50 lay in the range of 200 to 1000 nM.

On to `CC1(C(=O)Nc2c[nH]c3ccc(CC(O)Cc4ccc(C(F)(F)F)cc4)cc23)CC1` (stereo not drawn) [Compound 174, N-(5-(2-hydroxy-3-(4-(trifluoromethyl)phenyl)propyl)-1H-indol-3-yl)-1-methylcyclopropane-1-carboxamide], for which the EC50 is 200 to 1000 nM. To `N#CC1CCC1C(=O)Nc1c[nH]c2ccc(OCCc3ccc(C(F)(F)F)cc3)cc12` (stereo not drawn) [Compound 187, 2-cyano-N-(5-(4-(trifluoromethyl)phenethoxy)-1H-indol-3-yl)cyclobutane-1-carboxamide] belongs 200 to 1000 nM; to `CC(=O)Nc1c[nH]c2ccc(CCOC(C)(C)C3CCN(CC(F)(F)F)C3)cc12` (stereo not drawn) [Compound 499, N-(5-(2-((2-(1-(2,2,2-trifluoroethyl)pyrrolidin-3-yl)propan-2-yl)oxy)ethyl)-1H-indol-3-yl)acetamide], 5000 to 100000 nM.

As for `O=C(Nc1c[nH]c2ccc(CCOc3ccc(C(F)(F)F)cc3)cc12)C1CC(F)C1` (stereo not drawn) [Compound 593, 3-fluoro-N-(5-(2-(4-(trifluoromethyl)phenoxy)ethyl)-1H-indol-3-yl)cyclobutane-1-carboxamide], the concentration for a half-maximal effect (EC50) lay in the range of 40 to 200 nM.
